Experimental data: patent US10105357B2, “Indication of antibiotic drugs for preparation of cancer inhibition pharmaceutical composition” (LAUNX BIOMEDICAL CO., LTD., priority 2014, dated 2018)
Read-outs that look alike come from different tables or passages of the source.

Assays:
[1] = system: HepG2 (Hepatocellular Carcinoma); experiment: Cell viability analysis, hepatic cancer HepG2; format: cell-based, human
T24 = experiment: Cell viability analysis, bladder cancer T24; format: cell-based, human
[2] = system: C-33A (Cervical carcinoma); experiment: Cell viability analysis, cervical cancer C-33A; format: cell-based, human
[3] = system: BCC (basal cell carcinoma); experiment: Cell viability analysis, skin cancer BCC; format: cell-based, human
[4] = system: SAS (Tongue squamous cell carcinoma); experiment: Cell viability analysis, tongue cancer SAS; format: cell-based, human
TOV-21G = experiment: Cell viability analysis, ovarian cancer TOV-21G; format: cell-based, human
[5] = system: PC3 (p53−) (Prostate Adenocarcinoma); experiment: Cell viability analysis, prostate cancer PC3; format: cell-based, human
[6] = system: MDA-MB-231 (Mammary Gland, Adenocarcinoma); experiment: Cell viability analysis, breast cancer MDA-MB-231; format: cell-based, human
[7] = system: HeLa (Cervix Adenocarcinoma); experiment: Cell viability analysis, cervical cancer HeLa; format: cell-based, human
U-2OS = experiment: Cell viability analysis, osteosarcoma U-2OS; format: cell-based, human
[8] = system: HCT116 (p53+) (Colorectal Carcinoma)
AsPC-1 = experiment: Cell viability analysis, pancreatic cancer AsPC-1; format: cell-based, human
[9] = system: TSGH-8301 (Urinary Bladder Carcinoma); experiment: Cell viability analysis, bladder cancer TSGH-8301; format: cell-based, human
[10] = system: A375 (Amelanotic Melanoma); experiment: Cell viability analysis, skin cancer A375; format: cell-based, human
[11] = system: A549 (Lung Adenocarcinoma); experiment: Cell viability analysis, lung cancer A549; format: cell-based, human
[12] = system: MCF7 (Mammary Gland, Adenocarcinoma); experiment: Cell viability analysis, breast cancer MCF7; format: cell-based, human
NIH: OVCAR-3 = experiment: Cell viability analysis, ovarian cancer NIH: OVCAR-3; format: cell-based, human
[13] = system: 786-O (Renal adenocarcinoma); experiment: Cell viability analysis, renal cancer 786-O; format: cell-based, human
[14] = system: AGS (Gastric Adenocarcinoma); experiment: Cell viability analysis, gastric cancer AGS; format: cell-based, human
[15] = system: LoVo (Colorectal Adenocarcinoma); experiment: Cell viability analysis, colon cancer LoVo; format: cell-based, human
[16] = system: HI650 (Lung Adenocarcinoma); experiment: Cell viability analysis, lung cancer HI650; format: cell-based, human
[17] = system: MKN-45 (Gastric Adenocarcinoma); experiment: Cell viability analysis, gastric cancer MKN-45; format: cell-based, human
[18] = system: Hep3B (hepatocellular carcinoma); experiment: Cell viability analysis, hepatic cancer Hep3B; format: cell-based, human
BxPC-3 = experiment: Cell viability analysis, pancreatic cancer BxPC-3; format: cell-based, human

CCCSc1ccc2[nH]c(NC(=O)OC)nc2c1 [Albendazole (Albenza)]
The results of antibiotic drug inhibiting cancer cell lines (cell viability analysis), HepG2 ([1]; HepG2, repeated experiment): 62.7 | The results of antibiotic drug inhibiting cancer cell lines (cell viability analysis), T24 (T24; T24, repeated experiment): 37.98 | The results of antibiotic drug inhibiting cancer cell lines (cell viability analysis), C-33A ([2]; C-33A, repeated experiment): 42.62 | The results of antibiotic drug inhibiting cancer cell lines (cell viability analysis), BCC ([3]; BCC, repeated experiment): 31.25 | The results of antibiotic drug inhibiting cancer cell lines (cell viability analysis), SAS ([4]; SAS, repeated experiment): 36.08 | The results of antibiotic drug inhibiting cancer cell lines (cell viability analysis), TOV-21G (TOV-21G; TOV-21G, repeated experiment): 29.79 | The results of antibiotic drug inhibiting cancer cell lines (cell viability analysis), PC-3 ([5]; PC-3, repeated experiment): 37.99 | The results of antibiotic drug inhibiting cancer cell lines (cell viability analysis), MDA-MB231 ([6]; MDA-MB231, repeated experiment): 44.52 | The results of antibiotic drug inhibiting cancer cell lines (cell viability analysis), HeLa ([7]; HeLa, repeated experiment): 29.9 | The results of antibiotic drug inhibiting cancer cell lines (cell viability analysis), U2OS (U-2OS; U2OS, repeated experiment): 50.07 | viability [8]: 20.9% | The results of antibiotic drug inhibiting cancer cell lines (cell viability analysis), AsPC-1 (AsPC-1; AsPC-1, repeated experiment): 35.28 | The results of antibiotic drug inhibiting cancer cell lines (cell viability analysis), TSGH-8301 ([9]; TSGH-8301, repeated experiment): 46.61 | The results of antibiotic drug inhibiting cancer cell lines (cell viability analysis), A375 ([10]; A375, repeated experiment): 36.21 | The results of antibiotic drug inhibiting cancer cell lines (cell viability analysis), A549 ([11]; A549, repeated experiment): 24.2 | The results of antibiotic drug inhibiting cancer cell lines (cell viability analysis), MCF-7 ([12]; MCF-7, repeated experiment): 69.83 | The results of antibiotic drug inhibiting cancer cell lines (cell viability analysis), NIH-OVCAR-3 (NIH: OVCAR-3; NIH-OVCAR-3, repeated experiment): 52.49 | The results of antibiotic drug inhibiting cancer cell lines (cell viability analysis), 786-O ([13]; 786-O, repeated experiment): 21.55 | The results of antibiotic drug inhibiting cancer cell lines (cell viability analysis), AGS ([14]; AGS, repeated experiment): 29.46 | The results of antibiotic drug inhibiting cancer cell lines (cell viability analysis), LoVo ([15]; LoVo, repeated experiment): 50.79 | The results of antibiotic drug inhibiting cancer cell lines (cell viability analysis), H1650 ([16]; H1650, repeated experiment): 41.75 | The results of antibiotic drug inhibiting cancer cell lines (cell viability analysis), MKN-45 ([17]; MKN-45, repeated experiment): 62.34 | The results of antibiotic drug inhibiting cancer cell lines (cell viability analysis), Hep3B ([18]; Hep3B, repeated experiment): 61.38 | The results of antibiotic drug inhibiting cancer cell lines (cell viability analysis), BxPC-3 (BxPC-3; BxPC-3, repeated experiment): 36.62

Cc1cc(C#N)cc(C)c1Oc1nc(Nc2ccc(C#N)cc2)nc(N)c1Br [Etravirine (TMC125)]
The results of antibiotic drug inhibiting cancer cell lines (cell viability analysis), HepG2 [1]: 68.31 | The results of antibiotic drug inhibiting cancer cell lines (cell viability analysis), T24 (T24): 56.73 | The results of antibiotic drug inhibiting cancer cell lines (cell viability analysis), C-33A [2]: 63.88 | The results of antibiotic drug inhibiting cancer cell lines (cell viability analysis), BCC [3]: 46.3 | The results of antibiotic drug inhibiting cancer cell lines (cell viability analysis), SAS [4]: 34.01 | The results of antibiotic drug inhibiting cancer cell lines (cell viability analysis), TOV-21G (TOV-21G): 28.26 | The results of antibiotic drug inhibiting cancer cell lines (cell viability analysis), PC-3 [5]: 53.42 | The results of antibiotic drug inhibiting cancer cell lines (cell viability analysis), MDA-MB231 [6]: 95.38 | The results of antibiotic drug inhibiting cancer cell lines (cell viability analysis), HeLa [7]: 47.73 | The results of antibiotic drug inhibiting cancer cell lines (cell viability analysis), U2OS (U-2OS): 36.38 | viability [8]: 54.1% | The results of antibiotic drug inhibiting cancer cell lines (cell viability analysis), AsPC-1 (AsPC-1): 41.11 | The results of antibiotic drug inhibiting cancer cell lines (cell viability analysis), TSGH-8301 [9]: 56.13 | The results of antibiotic drug inhibiting cancer cell lines (cell viability analysis), A375 [10]: 37.32 | The results of antibiotic drug inhibiting cancer cell lines (cell viability analysis), A549 [11]: 37 | The results of antibiotic drug inhibiting cancer cell lines (cell viability analysis), MCF-7 [12]: 56.33 | The results of antibiotic drug inhibiting cancer cell lines (cell viability analysis), NIH-OVCAR-3 (NIH: OVCAR-3): 64.29 | The results of antibiotic drug inhibiting cancer cell lines (cell viability analysis), 786-O [13]: 59.38 | The results of antibiotic drug inhibiting cancer cell lines (cell viability analysis), AGS [14]: 49.66 | The results of antibiotic drug inhibiting cancer cell lines (cell viability analysis), LoVo [15]: 45.66 | The results of antibiotic drug inhibiting cancer cell lines (cell viability analysis), H1650 [16]: 51.13 | The results of antibiotic drug inhibiting cancer cell lines (cell viability analysis), MKN-45 [17]: 62.38 | The results of antibiotic drug inhibiting cancer cell lines (cell viability analysis), Hep3B [18]: 78.35 | The results of antibiotic drug inhibiting cancer cell lines (cell viability analysis), BxPC-3 (BxPC-3): 41.88
